The source made the active and inactive calls.
Assays:
[1] = target: Ion channel NompC (Danio rerio, UniProt Q7T1G6); test: Dose response cell-based high-throughput screening assay for agonists of the transient receptor potential channel N1 (TRPN1). [Related pubchem assays (depositor defined):AID1424, AID1448]; format: functional
[2] = target: Mucolipin-3 (Homo sapiens, UniProt Q8TDD5); test: Fluorescence counterscreen assay for […] agonists: dose response cell-based high-throughput screening assay to identify agonists of the transient receptor potential channel ML3 (TRPML3). [Related pubchem assays: 1424, 1448 ]; format: functional
Sequence of Mucolipin-3 (Q8TDD5 whole entry): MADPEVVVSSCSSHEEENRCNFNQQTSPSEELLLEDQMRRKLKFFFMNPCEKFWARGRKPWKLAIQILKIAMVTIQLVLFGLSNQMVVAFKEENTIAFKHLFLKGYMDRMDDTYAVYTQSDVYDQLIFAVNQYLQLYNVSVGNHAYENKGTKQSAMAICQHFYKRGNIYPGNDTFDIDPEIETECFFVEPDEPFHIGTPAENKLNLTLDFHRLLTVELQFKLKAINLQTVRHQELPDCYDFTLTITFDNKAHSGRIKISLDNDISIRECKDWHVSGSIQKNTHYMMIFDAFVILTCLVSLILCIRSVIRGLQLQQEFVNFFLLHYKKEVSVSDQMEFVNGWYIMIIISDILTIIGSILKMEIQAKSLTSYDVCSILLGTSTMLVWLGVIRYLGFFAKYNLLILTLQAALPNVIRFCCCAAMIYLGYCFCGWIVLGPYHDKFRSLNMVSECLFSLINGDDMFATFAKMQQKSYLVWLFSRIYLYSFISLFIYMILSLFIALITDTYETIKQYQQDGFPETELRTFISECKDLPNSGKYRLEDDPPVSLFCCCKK

[3] = target: T1, Alkaline phosphatase, tissue-nonspecific isozyme (Homo sapiens, UniProt P05186); test: human TNAP enzyme inhibitors, SAR follow-up, biochemical, luminescent, dose response (AID 1056)
T1 sequence (P05186 whole entry): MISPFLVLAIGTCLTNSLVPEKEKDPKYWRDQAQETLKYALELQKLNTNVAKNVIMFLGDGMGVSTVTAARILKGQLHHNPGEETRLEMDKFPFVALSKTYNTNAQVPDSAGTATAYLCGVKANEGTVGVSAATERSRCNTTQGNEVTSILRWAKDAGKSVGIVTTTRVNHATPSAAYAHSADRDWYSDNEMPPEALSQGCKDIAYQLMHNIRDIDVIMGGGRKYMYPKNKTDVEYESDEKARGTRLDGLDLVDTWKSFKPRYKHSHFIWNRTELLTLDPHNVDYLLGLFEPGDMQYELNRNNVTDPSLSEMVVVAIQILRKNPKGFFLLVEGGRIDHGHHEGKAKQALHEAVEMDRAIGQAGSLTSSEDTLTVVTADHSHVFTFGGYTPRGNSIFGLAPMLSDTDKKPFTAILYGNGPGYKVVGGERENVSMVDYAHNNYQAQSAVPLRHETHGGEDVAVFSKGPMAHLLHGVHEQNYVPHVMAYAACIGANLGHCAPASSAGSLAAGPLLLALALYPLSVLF

[4] = target: Glyceraldehyde-3-phosphate dehydrogenase (Homo sapiens, UniProt P04406)
Sequence of Glyceraldehyde-3-phosphate dehydrogenase (P04406 whole entry): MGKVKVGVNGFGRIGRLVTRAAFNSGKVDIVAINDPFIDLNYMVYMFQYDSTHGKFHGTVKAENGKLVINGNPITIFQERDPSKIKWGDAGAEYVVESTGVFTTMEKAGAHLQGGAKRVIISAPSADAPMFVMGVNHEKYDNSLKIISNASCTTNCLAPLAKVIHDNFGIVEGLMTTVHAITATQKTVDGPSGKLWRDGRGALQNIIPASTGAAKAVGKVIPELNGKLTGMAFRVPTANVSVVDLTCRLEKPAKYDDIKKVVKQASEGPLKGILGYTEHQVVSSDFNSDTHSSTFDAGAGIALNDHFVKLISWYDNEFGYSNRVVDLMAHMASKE

[5] = target: T2, Voltage-gated N-type calcium channel alpha-1B subunit/Amyloid beta A4 precursor protein-binding family A member 1 (Homo sapiens, UniProt Q00975+Q02410); format: protein assay
[6] = target: T3, Sentrin-specific protease 8 (Homo sapiens, UniProt Q96LD8); format: functional;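 also: luminescence read-out of SENP8 inhibition, dose-response confirmation following an ultra-high-throughput screen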
T3 sequence (Q96LD8 whole entry): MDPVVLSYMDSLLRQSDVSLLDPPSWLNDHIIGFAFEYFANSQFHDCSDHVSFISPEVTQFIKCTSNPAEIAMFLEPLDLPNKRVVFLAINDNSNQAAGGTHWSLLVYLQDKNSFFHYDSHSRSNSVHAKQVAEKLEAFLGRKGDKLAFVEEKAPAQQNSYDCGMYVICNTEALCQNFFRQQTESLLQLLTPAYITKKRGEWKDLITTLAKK

[7] = target: T2, Voltage-gated N-type calcium channel alpha-1B subunit/Amyloid beta A4 precursor protein-binding family A member 1; format: protein assay; remark: listed apart in the source
[8] = target: T4, Sentrin-specific protease 7 (Homo sapiens, UniProt Q9BQF6); format: functional;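 also: Luminescence-based dose-response confirmation of ultra-high-throughput screening hits, measuring inhibition of SENP7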
T4 sequence (Q9BQF6 whole entry): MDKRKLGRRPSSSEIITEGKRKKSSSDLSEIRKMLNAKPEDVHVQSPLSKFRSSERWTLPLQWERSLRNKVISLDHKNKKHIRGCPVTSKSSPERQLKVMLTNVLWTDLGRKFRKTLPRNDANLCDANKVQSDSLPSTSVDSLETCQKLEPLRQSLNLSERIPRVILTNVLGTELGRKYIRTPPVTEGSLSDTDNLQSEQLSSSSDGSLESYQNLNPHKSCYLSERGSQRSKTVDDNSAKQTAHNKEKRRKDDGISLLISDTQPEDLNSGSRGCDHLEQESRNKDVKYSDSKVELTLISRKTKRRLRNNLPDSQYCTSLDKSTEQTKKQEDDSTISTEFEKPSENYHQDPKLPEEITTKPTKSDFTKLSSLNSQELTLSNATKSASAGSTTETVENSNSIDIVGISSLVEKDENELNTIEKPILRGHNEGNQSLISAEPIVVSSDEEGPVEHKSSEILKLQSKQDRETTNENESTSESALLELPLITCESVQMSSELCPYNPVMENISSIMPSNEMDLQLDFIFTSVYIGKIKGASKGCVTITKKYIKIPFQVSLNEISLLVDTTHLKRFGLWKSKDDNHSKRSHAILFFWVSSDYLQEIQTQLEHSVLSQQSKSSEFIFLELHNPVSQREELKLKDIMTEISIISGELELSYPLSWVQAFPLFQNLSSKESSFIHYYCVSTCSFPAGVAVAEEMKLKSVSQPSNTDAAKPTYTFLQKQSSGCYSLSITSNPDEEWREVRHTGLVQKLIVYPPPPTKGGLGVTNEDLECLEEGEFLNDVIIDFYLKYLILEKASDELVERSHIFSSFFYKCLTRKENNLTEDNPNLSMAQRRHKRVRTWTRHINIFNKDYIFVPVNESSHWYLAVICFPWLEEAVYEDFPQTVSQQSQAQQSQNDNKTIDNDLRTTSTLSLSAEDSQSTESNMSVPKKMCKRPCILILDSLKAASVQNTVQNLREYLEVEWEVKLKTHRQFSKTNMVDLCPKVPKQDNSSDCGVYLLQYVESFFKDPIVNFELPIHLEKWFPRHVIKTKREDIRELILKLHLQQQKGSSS

[9] = target: T5, Sentrin-specific protease 6 (Homo sapiens, UniProt Q9GZR1); format: functional;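 also: Luminescence-based dose-response confirmatory assay of SENP6 inhibition, following up an ultra-high-throughput screen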
T5 sequence (Q9GZR1 whole entry): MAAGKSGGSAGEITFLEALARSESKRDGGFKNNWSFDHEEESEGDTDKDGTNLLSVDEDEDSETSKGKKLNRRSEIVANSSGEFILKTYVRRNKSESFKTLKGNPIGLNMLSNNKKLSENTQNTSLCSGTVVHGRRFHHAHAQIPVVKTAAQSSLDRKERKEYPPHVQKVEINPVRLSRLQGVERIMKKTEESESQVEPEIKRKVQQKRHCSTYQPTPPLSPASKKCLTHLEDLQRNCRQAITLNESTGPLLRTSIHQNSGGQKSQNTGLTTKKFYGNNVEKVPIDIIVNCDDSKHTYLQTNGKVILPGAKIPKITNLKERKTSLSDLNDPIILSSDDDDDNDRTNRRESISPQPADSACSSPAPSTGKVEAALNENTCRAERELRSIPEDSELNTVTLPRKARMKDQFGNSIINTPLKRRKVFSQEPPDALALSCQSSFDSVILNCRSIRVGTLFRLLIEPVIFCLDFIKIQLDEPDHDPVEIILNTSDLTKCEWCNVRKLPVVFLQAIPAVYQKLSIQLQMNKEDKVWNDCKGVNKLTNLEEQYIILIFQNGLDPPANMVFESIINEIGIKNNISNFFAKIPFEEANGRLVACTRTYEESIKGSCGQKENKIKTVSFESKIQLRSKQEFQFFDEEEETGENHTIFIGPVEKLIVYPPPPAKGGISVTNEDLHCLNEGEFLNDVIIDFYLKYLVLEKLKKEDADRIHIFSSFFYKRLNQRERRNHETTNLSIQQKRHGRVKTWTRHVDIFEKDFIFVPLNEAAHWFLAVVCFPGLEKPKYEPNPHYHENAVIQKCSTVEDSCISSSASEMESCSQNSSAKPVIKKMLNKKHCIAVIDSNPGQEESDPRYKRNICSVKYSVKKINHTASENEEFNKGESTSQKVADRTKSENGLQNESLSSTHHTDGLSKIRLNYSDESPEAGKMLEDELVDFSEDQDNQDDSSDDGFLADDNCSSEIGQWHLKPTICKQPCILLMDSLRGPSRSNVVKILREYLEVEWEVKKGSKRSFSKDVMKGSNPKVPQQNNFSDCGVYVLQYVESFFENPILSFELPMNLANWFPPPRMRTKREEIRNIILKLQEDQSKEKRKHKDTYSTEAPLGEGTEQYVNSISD

[10] = target: T6, Caspase-3 (Homo sapiens, UniProt P42574); format: functional;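 also: Dose-response selectivity test against caspase-3 for candidate inhibitors of sentrin-specific proteases (SENPs)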
T6 sequence (P42574 whole entry): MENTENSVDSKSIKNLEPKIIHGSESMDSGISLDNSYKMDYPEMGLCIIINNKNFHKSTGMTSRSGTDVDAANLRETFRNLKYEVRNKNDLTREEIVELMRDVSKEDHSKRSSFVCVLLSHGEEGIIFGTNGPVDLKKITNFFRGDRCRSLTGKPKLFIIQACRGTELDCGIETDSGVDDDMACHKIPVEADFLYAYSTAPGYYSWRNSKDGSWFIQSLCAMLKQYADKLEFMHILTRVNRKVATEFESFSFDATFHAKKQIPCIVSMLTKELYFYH

[11] = THP-1 cell cytotoxicity, dose response, cytotoxicity control for non-replicating M. tuberculosis project (AID 489025); format: functional
[12] = target: T7, Protein skinhead-1 (Caenorhabditis elegans, UniProt P34707); format: functional
T7 sequence (P34707 whole entry): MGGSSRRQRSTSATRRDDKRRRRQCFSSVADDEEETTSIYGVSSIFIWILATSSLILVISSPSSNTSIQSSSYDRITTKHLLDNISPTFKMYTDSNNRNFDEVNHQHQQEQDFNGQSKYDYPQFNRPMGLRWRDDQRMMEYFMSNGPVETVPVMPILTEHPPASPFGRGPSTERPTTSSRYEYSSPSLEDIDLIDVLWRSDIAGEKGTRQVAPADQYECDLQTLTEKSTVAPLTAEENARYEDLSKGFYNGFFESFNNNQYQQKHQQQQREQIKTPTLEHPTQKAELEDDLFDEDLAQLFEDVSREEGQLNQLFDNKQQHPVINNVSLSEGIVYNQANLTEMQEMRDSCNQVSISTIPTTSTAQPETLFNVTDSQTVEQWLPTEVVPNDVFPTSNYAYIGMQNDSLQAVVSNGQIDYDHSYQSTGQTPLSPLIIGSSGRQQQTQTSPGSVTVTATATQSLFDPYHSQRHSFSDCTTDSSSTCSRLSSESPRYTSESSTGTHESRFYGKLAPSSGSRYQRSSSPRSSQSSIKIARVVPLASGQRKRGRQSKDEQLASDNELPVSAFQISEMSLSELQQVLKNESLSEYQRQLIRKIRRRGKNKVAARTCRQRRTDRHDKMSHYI

[13] = Vero E6 cell cytotoxicity, dose response, cytotoxicity control for non-replicating M. tuberculosis project, secondary assay (AID 492998); format: functional, VeroE6; details: Vero C1008
[14] = cells; format: functional
[15] = system: HEK293; test: NOD2 signaling inhibitors in MDP-stimulated cells, cell-based, uHTS, luminescence (AID 2001); format: functional; details: Homo sapiens
[16] = system: HEK293; test: cells; format: functional, cell-based; details: Homo sapiens
[17] = system: HEK293; test: NOD1 signaling inhibitors, primary screen, cell-based, luminescence, uHTS (AID 1578); format: functional; details: Homo sapiens
[18] = Luminescence Cell-Based Dose Retest to Confirm Inhibitors of Cancer Stem Cells. [Related pubchem assays (depositor defined):AID2717, AID2721]; format: functional; details: Homo sapiens
[19] = Luminescence Cell-Based Dose Response HTS to Identify Activators of Luciferase Translation or Activity in H4 […] Cells. [Related pubchem assays: 1829 (Project Summary), 1814 (Primary HTS)]; format: functional
[20] = system: H4; test: Luminescence Cell-Based Dose Response HTS to Identify Activators of 5'UTR Stem-Loop Driven Prion Protein mRNA Translation in H4 Neuroglioblastoma Cells. [Related pubchem assays: 1829 (Project Summary), 1814 (Primary HTS)]; format: functional; details: Homo sapiens
[21] = Luminescence Cell-Based Dose Confirmation HTS to Identify Activators of 5'UTR Stem-Loop Driven Alpha-Synuclein mRNA Translation in H4 Neuroglioblastoma Cells. [Related pubchem assays: 1829 (Project Summary), 1814 (Primary HTS)]; format: functional
[22] = target: T8, Microphthalmia-associated transcription factor (Homo sapiens, UniProt O75030); test: TRPM1 promoter luciferase signal decrease, dose response, MITF inhibitor project, cell-based, SK-MEL-5, cherry-picked, set 3 (AID 493073); format: functional
T8 sequence (O75030 whole entry): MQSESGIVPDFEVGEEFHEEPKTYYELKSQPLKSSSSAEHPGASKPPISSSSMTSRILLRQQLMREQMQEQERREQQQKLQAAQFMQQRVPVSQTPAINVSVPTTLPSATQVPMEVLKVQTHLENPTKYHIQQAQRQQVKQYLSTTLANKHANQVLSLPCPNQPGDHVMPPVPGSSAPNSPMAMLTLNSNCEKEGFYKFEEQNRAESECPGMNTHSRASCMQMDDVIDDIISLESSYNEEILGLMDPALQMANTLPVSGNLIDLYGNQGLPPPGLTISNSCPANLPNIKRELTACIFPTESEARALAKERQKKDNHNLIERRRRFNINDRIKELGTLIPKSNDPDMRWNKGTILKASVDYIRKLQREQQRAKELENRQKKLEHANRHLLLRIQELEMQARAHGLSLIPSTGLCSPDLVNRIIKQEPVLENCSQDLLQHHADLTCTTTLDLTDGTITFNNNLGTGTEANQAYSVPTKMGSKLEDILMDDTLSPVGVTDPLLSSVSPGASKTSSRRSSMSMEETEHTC

Sequence of Ion channel NompC (Q7T1G6 whole entry): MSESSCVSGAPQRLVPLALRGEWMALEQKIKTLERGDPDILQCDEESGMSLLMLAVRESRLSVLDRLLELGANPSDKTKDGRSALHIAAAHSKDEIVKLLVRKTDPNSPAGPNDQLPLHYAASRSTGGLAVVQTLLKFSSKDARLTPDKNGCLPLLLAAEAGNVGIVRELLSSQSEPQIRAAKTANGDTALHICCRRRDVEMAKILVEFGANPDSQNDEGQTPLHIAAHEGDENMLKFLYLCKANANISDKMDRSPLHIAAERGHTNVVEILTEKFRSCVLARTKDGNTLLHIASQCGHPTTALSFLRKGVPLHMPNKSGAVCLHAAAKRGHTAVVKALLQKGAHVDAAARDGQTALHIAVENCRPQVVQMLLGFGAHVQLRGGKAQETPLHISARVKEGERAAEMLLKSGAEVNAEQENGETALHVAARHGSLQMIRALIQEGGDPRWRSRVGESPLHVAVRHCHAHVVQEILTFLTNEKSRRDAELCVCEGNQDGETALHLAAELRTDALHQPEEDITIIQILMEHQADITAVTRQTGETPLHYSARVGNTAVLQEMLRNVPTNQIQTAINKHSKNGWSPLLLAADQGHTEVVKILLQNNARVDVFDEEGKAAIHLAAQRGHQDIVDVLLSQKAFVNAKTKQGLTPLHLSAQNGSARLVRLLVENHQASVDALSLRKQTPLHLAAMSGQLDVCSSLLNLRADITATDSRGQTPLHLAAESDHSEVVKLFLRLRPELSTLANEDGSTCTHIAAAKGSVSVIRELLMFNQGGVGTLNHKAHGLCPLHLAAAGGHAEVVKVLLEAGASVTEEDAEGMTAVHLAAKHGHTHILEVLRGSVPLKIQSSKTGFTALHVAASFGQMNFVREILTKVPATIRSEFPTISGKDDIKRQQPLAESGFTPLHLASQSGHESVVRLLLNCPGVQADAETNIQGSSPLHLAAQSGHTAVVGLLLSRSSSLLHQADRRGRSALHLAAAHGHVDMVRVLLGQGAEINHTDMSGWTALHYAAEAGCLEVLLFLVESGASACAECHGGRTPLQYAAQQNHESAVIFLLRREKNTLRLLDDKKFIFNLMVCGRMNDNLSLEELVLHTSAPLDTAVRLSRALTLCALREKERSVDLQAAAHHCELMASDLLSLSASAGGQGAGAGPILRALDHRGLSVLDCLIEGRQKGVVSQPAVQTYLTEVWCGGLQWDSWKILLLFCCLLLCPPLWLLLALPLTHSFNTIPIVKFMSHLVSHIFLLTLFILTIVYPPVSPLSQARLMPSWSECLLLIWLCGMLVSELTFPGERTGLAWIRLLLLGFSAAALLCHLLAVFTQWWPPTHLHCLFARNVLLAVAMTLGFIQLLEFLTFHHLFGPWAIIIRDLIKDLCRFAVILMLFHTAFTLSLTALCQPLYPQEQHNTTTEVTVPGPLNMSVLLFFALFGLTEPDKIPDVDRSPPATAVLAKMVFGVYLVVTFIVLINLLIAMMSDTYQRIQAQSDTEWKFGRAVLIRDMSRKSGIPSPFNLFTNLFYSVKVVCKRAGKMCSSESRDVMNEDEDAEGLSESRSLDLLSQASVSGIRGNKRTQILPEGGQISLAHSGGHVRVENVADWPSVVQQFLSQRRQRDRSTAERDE

## COC(=O)C(/C=N/OCc1ccc([N+](=O)[O-])cc1)NC(=O)c1cccc(Cl)c1 (configuration not stated)
[1]
  EC50: > 29.9 µM (inactive)
[2]
  EC50: > 29.9 µM (not active)

## COc1ccc(S(=O)(=O)Nc2ccncn2)cc1OC
[3]
  IC50: > 100 µM (inactive)
[4]
  IC50: > 100 µM (not active)

## O=c1[nH]c(/C=C/c2ccccc2Cl)nc2ccccc12
[5]
  IC50: > 56.8 µM (not active)
[6]
  IC50: > 100 µM (inactive)
[7]
  IC50: > 50 µM (inactive)
[8]
  IC50: 1.64 µM (active)
[9]
  IC50: 1.4 µM (active)
[10]
  IC50: 1.61 µM (active)

## C#CCSc1nnc(-c2cccc3ccccc23)o1
[11]
  CC50: 20.6 µM (active)
[12]
  IC50: 10.2 µM (active)
[13]
  CC50: 15.7 µM (active)
[14]
  IC50: 9.32 µM (active)

## Cc1ccc(NC(=O)Nc2nnc(-c3ccncc3)s2)cc1
[1]
  EC50: > 29.9 µM (inactive)
[2]
  EC50: > 29.9 µM (not active)
[15]
  IC50: 5.87 µM (active)
[16]
  IC50: > 20 µM (inactive)
[17]
  EC50: 3.38 µM (active)

## O=C(Nc1cccc(S(=O)(=O)N2CCCCC2)c1)c1ccc([N+](=O)[O-])o1
[11]
  CC50: 8.73 µM (active)
[18]
  AC50: 2.44 µM (active)
[19]
  EC50: > 120 µM (not active)
[20]
  EC50: > 120 µM (not active)
[13]
  CC50: 4.29 µM (active)
[14]
  IC50: 5.03 µM (active)
[21]
  EC50: > 120 µM (not active)
[22]
  AC50: 11.9 µM (active)

Reference: ChEMBL document CHEMBL1201862, “PubChem BioAssay data set” (2004)
